According to patent US7125564B2, “Water soluble and palatable complexes” (Lavipharm Laboratories, Inc., priority 2001, dated 2006):
In brackets after ≈: the same amount, converted by molar mass. Structures can show the parent of a compound that is named as a salt.

Assays:
[1] = Water solubility of active agent with and without glycyrrhizin ammonium (24 h rotation, filtration, HPLC); settings: versus control with zero glycyrrhizin, 0.1 M glycyrrhizin ammonium, distilled water, room temperature
[2] = cited from earlier work; for bioavailability: oral administration
[3] = cited from earlier work
[4] = cited from earlier work; remark: listed apart in the source
[5] = physchem; settings: thermodynamic from solid

In the case of “5-[-2-ethoxy-5-(4-methylpiperazin-1ylsulphonyl)phenyl]-1-methyl -3-n-propyl-1,6-dihydro-7H-pyrazolo[4,3-d]pyrimidine [sildenafil]”, the “increase of solubility through complexation with glycyrrhizin” value [1] is reported as 200 fold and the “increase of solubility through complexation with glycyrrhizin” value ([1]; listed as sildenfil) is reported as “more than 200 fold”.
In the case of CCCc1nn(C)c2c(=O)[nH]c(-c3cc(S(=O)(=O)N4CCN(C)CC4)ccc3OCC)nc12 [Sildenafil citrate], the bioavailability [2] is listed as “about 40%” and the solubility ([3]; formulated as a regular film tablet) is listed as 6000 to 8000 µg/mL.
In the case of O=C1CC2(CCCC2)CC(=O)N1CCCCN1CCN(c2ncccn2)CC1 [buspirone, 8-[4-[4-(2-pyrimidinyl)1-piperazinyl]butyl]-8-azaspiro(4,5)-decane-7,9-dione], the biological half-life ([4]; in man) is listed as 2–11 hours, the “interindividual variation of the maximum plasma concentration” value ([4]; oral) is listed as “up to 10 fold” and the solubility at 24 h ([5]; aqueous with cosolvent or surfactant or cyclodextrin) is listed as 44000 µg/mL (≈ 114000 µM). It also gave a solubility at 24 h ([5]; water) of 380 µg/mL (≈ 986 µM).
For NC(N)=Nc1nc(CSCCC(N)=NS(N)(=O)=O)cs1 [famotidine, N′(aminosulfonyl)-3-[[[2-[(diaminomethylene)amino]-4-thiazolyl]methyl]thio] propanimidamide], the “time to peak plasma concentration” value ([2]; after oral administration) is given as 1 to 3.5 h, the bioavailability [2] is given as “approximately 43%” and the “effect of food on bioavailability” value ([2]; tablet formulation) is given as “unaffected by food”. For the same molecule, the intrinsic water solubility [3] was 278 µg/mL, the pKa [3] was 6.8 and the solubility in ethanol ([3]; ethanol) was “insoluble”. The “solubility in glacial acetic acid” value ([3]; glacial acetic acid) was “freely soluble”, the solubility in water ([3]; water) was “very slightly soluble” and the solubility at 24 h ([5]; water) was < 1000 µg/mL.
In the case of CC(C)(C)c1ccc(C(O)CCCN2CCC(C(O)(c3ccccc3)c3ccccc3)CC2)cc1 (stereo not drawn) [terfenadine], the “fraction of a tablet given by mouth changed to metabolites” value ([2]; oral tablet, first-pass effect) is given as 99.5%.
